From US20150175655A1 (priority 2012, published 2015)

target: T1, NS3 genotype 3a protease (UniProt Q81258); assay: Ki determination, NS3 protease genotype 3a (fluorogenic depsipeptide substrate); format: biochemical, hepatitis C virus; conditions: 200 pM enzyme, 20 μM NS4A peptide, 2 μM substrate, read-out: Ki 3A
T1 construct: Purified NS3 protease domain (amino acids 1-181) of the genotype 1b and 3a virus were generated as above; fused on or other part: N-terminal hexahistidine tag and rTEV protease cleavage site (vector p28-N6H-Tev-NS3(181)3)
T1 sequence (Q81258 1033-1663): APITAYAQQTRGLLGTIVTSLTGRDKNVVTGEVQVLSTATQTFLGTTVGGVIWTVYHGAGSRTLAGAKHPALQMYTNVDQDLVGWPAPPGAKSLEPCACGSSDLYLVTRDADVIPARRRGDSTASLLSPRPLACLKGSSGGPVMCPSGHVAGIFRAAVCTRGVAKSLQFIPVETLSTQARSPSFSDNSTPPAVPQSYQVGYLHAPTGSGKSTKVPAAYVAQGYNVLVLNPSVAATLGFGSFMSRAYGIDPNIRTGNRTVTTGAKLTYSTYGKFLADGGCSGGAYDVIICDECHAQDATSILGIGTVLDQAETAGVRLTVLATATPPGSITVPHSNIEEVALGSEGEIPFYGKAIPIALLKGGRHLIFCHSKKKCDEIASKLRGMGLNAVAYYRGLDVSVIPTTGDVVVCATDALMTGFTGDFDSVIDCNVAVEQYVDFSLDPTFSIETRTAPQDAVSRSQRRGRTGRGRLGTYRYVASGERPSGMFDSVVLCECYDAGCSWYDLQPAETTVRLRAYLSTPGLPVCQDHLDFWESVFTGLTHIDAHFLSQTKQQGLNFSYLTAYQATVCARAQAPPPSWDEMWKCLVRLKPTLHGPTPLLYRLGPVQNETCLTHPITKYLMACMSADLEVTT
Text: The coding sequences for the genotype 3 HCV protease domain was amplified by RT-PCR using a Titan One Tube RT-PCR Kit (Roche, Indianapolis, Ind.) and RNA extracted from HCV-positive human serum (BBI Diagnostics, MA) using a QIAmp UltraSens Virus Kit (Qiagen, Valencia, Calif.). 5′ PCR primers were designed to encode N-terminal hexahistidine tags and to insert in-frame rTEV protease cleavage sites into the NS3 protease coding sequences. The resulting DNA fragments were cloned into pET28 yielding the expression vectors p28-N6H-Tev-NS3(181)1a and p28-N6H-Tev-NS3(181)3, respectively.
BL21AI bacteria (Invitrogen, Carlsbad, Calif.) were transformed with genotype 1b or 3 NS3 expression vectors and used to inoculate a 20 L fermentation vessel (Sartorius BBI System Inc., Bethlehem, Pa.), containing 18 L of fresh 2YT medium supplemented with 50 μg/mL kanamycin. When cell densities reached an OD600 of 1, the temperature of the cultures was reduced from 37° C. to 28° C. and induction was immediately initiated by the addition of 30 μM ZnSO4, 14 mM L-arabinose and 1 mM Isopropyl β-D-thiogalactoside (IPTG) final concentrations. Cells were harvested by centrifugation four hours post-induction and were stored as frozen pellets at −80° C. prior to NS3 protein purification.
Bacterial pellets collected from the expression of genotype 3 HCV NS3 protease were homogenized in Lysis Buffer (25 mM tris, pH 7.5 buffer containing 150 mM NaCl and 1 mM phenylmethanesulfonyl fluoride (PMSF)) and passed through a microfluidizer at 18,000 pounds/in^2. Homogenized cell lysates were centrifuged at 30,000×g for 30 minutes at 4° C. The resulting P1 pellets were washed with Wash Buffer I (25 mM tris, pH 7.5 containing 1% CHAPS) followed by centrifugation at 10,000×g for 30 minutes at 4° C. […] The resulting P3 pellets were resuspended in Solubilization Buffer (20 ml of 25 mM tris, pH 7.5 containing 150 mM NaCl and 8 M urea) and incubated at 4° C. for one hour. Solubilized proteins were passed through a 0.45 micron filter. Protein concentrations were measured and the solutions were adjusted to 40 mM DTT, incubated for 30 minutes at 4° C. and then quickly diluted into Refolding Buffer (25 mM tris, pH 8.5, 0.8 M Guanidine-HCl, 0.4 M L-Arginine, 10 mM ZnSO4) while stirring. Protein solutions were incubated at 4° C. overnight to allow refolding. Refolded proteases were centrifuged at 30,000×g for 10 minutes to remove residual precipitates. Final protein concentrations were then measured and the NS3 proteases were aliquoted, snap frozen in liquid nitrogen and stored at −80° C.
Purified NS3 protease domain (amino acids 1-181) of the genotype 1b and 3a virus were generated as above. The internally quenched fluorogenic depsipeptide substrate Ac-DED(Edans)-EEAbuψ[COO]ASK(Dabcyl)-NH2 and a synthetic peptide containing the hydrophobic core residues of the NS4A protein cofactor ([…]; NS4A peptide) were obtained from Anaspec, Inc. (San Jose, Calif.). Other chemicals and biochemicals were of reagent grade or better and were purchased from standard suppliers.
Reactions were run at room temperature in buffer consisting of 50 mM HEPES, 40% glycerol, 0.05% Triton X-100, 10 mM DTT, and 10% DMSO. The final assay solutions contained 50 pM NS3 genotype 1b protease or 200 pM genotype 3a protease, 20 μM NS4A peptide, and 4 μM substrate (genotype 1 b) or 2 μM substrate (genotype 3a). Inhibitor concentrations varied from 100 nM to 5 pM in 3-fold dilutions, and no-inhibitor controls were included.
Compound dilutions were made in DMSO at 20× final concentration. Reaction mixtures were prepared in 96-well assay plates. A solution of enzyme and NS4A peptide in assay buffer (25 μL volume with both reagents at 4× final concentration) was mixed with 45 μL assay buffer and 5 μL of either inhibitor or DMSO, and pre-incubated at room temperature for 1 hour. The reaction was started by addition of 25 μL substrate solution at 4× final concentration. […]

SMILES | Ki
CC[C@@H]1[C@@H]2CN(C(=O)[C@H](C(C)(C)C)NC(=O)O[C@@H]3C[C@H]3CCCCCc3nc4ccc(OC)cc4nc3O2)[C@@H]1C(=O)N[C@]1(C(=O)NS(=O)(=O)C2(C)CC2)C[C@H]1C [Example 73, (1aR,5S,8S,9S,10R,22aR)-5-tert-butyl-9-ethyl-14-methoxy-N-[(1R,2R)-2-methyl-1-{[(1-methylcyclopropyl)sulfonyl]carbamoyl}cyclopropyl]-3,6-dioxo-1,1a,3,4,5,6,9,10,18,19,20,21,22,22a-tetradecahydro-8H-7,10-methanocyclopropa[18,19][1,10,3,6]dioxadiazacyclononadecino[11,12-b]quinoxaline-8-carboxamide] | 0.82 nM
CC[C@@H]1[C@@H]2CN(C(=O)[C@H](C(C)(C)C)NC(=O)O[C@@H]3C[C@H]3CCCCC(F)(F)c3nc4ccccc4nc3O2)[C@@H]1C(=O)N[C@]1(C(=O)NS(=O)(=O)C2CC2)C[C@H]1C(F)F [Example 53, (1aR,5S,8S,9S,10R,22aR)-5-tert-butyl-N-[(1R,2R)-1-[(cyclopropylsulfonyl)carbamoyl]-2-(difluoromethyl)cyclopropyl]-9-ethyl-18,18-difluoro-3,6-dioxo-1,1a,3,4,5,6,9,10,18,19,20,21,22,22a-tetradecahydro-8H-7,10-methanocyclopropa[18,19][1,10,3,6]dioxadiazacyclononadecino[11,12-b]quinoxaline-8-carboxamide] | 0.09 nM
CC[C@@H]1[C@@H]2CN(C(=O)[C@H](C(C)(C)C)NC(=O)O[C@@H]3C[C@H]3CCCCC(F)(F)c3nc4ccc(OC(F)F)cc4nc3O2)[C@@H]1C(=O)N[C@]1(C(=O)NS(=O)(=O)C2(C)CC2)C[C@H]1C(F)F [Example 85, (1aR,5S,8S,9S,10R,22aR)-5-tert-butyl-14-(difluoromethoxy)-N-[(1R,2R)-2-(difluoromethyl)-1-{[(1-methylcyclopropyl)sulfonyl]carbamoyl}cyclopropyl]-9-ethyl-18,18-difluoro-3,6-dioxo-1,1a,3,4,5,6,9,10,18,19,20,21,22,22a-tetradecahydro-8H-7,10-methanocyclopropa[18,19][1,10,3,6]dioxadiazacyclononadecino[11,12-b]quinoxaline-8-carboxamide] | 0.03 nM
CC[C@@H]1[C@@H]2CN(C(=O)[C@H](C(C)(C)C)NC(=O)O[C@@H]3C[C@H]3CCCCC(F)c3nc4ccc(OC)cc4nc3O2)[C@@H]1C(=O)N[C@]1(C(=O)NS(=O)(=O)C2(C)CC2)C[C@H]1C(F)F (stereo partly drawn) [Example 90, (1aR,5S,8S,9S,10R,22aR)-5-tert-butyl-N-[(1R,2R)-2-(difluoromethyl)-1-{[(1-methylcyclopropyl)sulfonyl]carbamoyl}cyclopropyl]-9-ethyl-18-fluoro-14-methoxy-3,6-dioxo-1,1a,3,4,5,6,9,10,18,19,20,21,22,22a-tetradecahydro-8H-7,10-methanocyclopropa[18,19][1,10,3,6]dioxadiazacyclononadecino[11,12-b]quinoxaline-8-carboxamide] | 0.13 nM
CC[C@@H]1[C@@H]2CN(C(=O)[C@H](C(C)(C)C)NC(=O)O[C@@H]3C[C@H]3CCCCC(F)(F)c3nc4ccc(OC)cc4nc3O2)[C@@H]1C(=O)N[C@]1(C(=O)NS(=O)(=O)C2CC2)C[C@H]1CC [Example 34, (1aR,5S,8S,9S,10R,22aR)-5-tert-butyl-N-{(1R,2R)-1-[(cyclopropylsulfonyl)carbamoyl]-2-ethylcyclopropyl}-9-ethyl-18,18-difluoro-14-methoxy-3,6-dioxo-1,1a,3,4,5,6,9,10,18,19,20,21,22,22a-tetradecahydro-8H-7,10-methanocyclopropa[18,19][1,10,3,6]dioxadiazacyclononadecino[11,12-b]quinoxaline-8-carboxamide] | 0.28 nM
CC[C@@H]1[C@@H]2CN(C(=O)[C@H](C(C)(C)C)NC(=O)O[C@@H]3C[C@@H]4C[C@@H]4[C@H]3CCCCC(F)(F)c3nc4ccc(OC)cc4nc3O2)[C@@H]1C(=O)N[C@]1(C(=O)NS(=O)(=O)C2(C)CC2)C[C@H]1C(F)F [Example 61, (1aS,2aR,6S,9S,10S,11R,23aR,23bS)-6-tert-butyl-N-[(1R,2R)-2-(difluoromethyl)-1-{[(1-methylcyclopropyl)sulfonyl]carbamoyl}cyclopropyl]-10-ethyl-19,19-difluoro-15-methoxy-4,7-dioxo-1a,2,2a,4,5,6,7,10,11,19,20,21,22,23,23a,23b-hexadecahydro-1H,9H-8,11-methanocyclopropa[4′,5′]cyclopenta[1′,2′:18,19][1,10,3,6]dioxadiazacyclononade cino[11,12-b]quinoxaline-9-carboxamide] | 0.09 nM

same assay, conditions: read-out: Ki 3A, 200 pM enzyme, 20 μM NS4A peptide, 2 μM substrate

SMILES | Ki
COc1ccc2nc3c(nc2c1)O[C@H]1CN(C(=O)[C@H](C(C)(C)C)NC(=O)O[C@@H]2C[C@H]2CCCCC3)[C@H](C(=O)N[C@]2(C(=O)NS(=O)(=O)C3(C)CC3)C[C@H]2CCF)[C@@H]1C [Example 23, (1aR,5S,8S,9S,10R,22aR)-5-tert-butyl-N-[(1R,2S)-2-(2-fluoroethyl)-1-{[(1-methylcyclopropyl)sulfonyl]carbamoyl}cyclopropyl]-14-methoxy-9-methyl-3,6-dioxo-1,1a,3,4,5,6,9,10,18,19,20,21,22,22a-tetradecahydro-8H-7,10-methanocyclopropa[18,19][1,10,3,6]dioxadiazacyclononadecino[11,12-b]quinoxaline-8-carboxamide] | 1.1 nM
COc1ccc2nc3c(nc2c1)O[C@H]1CN(C(=O)[C@H](C(C)(C)C)NC(=O)O[C@@H]2C[C@@H]4C[C@@H]4[C@H]2CCCCC3)[C@H](C(=O)N[C@]2(C(=O)NS(=O)(=O)C3(C)CC3)C[C@H]2C(F)F)[C@@H]1C [Example 49, (1aS,2aR,6S,9S,10S,11R,23aR,23bS)-6-tert-butyl-N-[(1R,2R)-2-(difluoromethyl)-1-{[(1-methylcyclopropyl)sulfonyl]carbamoyl}cyclopropyl]-15-methoxy-10-methyl-4,7-dioxo-1a,2,2a,4,5,6,7,10,11,19,20,21,22,23,23a,23b-hexadecahydro-1H,9H-8,11-methanocyclopropa[4′,5′]cyclopenta[1′,2′:18,19][1,10,3,6]dioxadiazacyclononade cino[11,12-b]quinoxaline-9-carboxamide] | 0.07 nM
